Results: patent US9399646B2 (Genentech, Inc., priority 2010, dated 2016)
pIC50: −log10 of the molar value.

Key:
MCF-7 cells = assay: Breast cancer cell viability assay (CellTiter-Glo, 5 days); assay type: cell-based; settings: 5 days' compound exposure; for pIC50: Homo sapiens, MCF7, 120 h
In short: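 Eleven-point semilog compound series, final 0.3-0.000003 μM, added to overnight-adhered MCF-7 cells (320/well; RPMI, 10% FBS, 20 mM HEPES) for 5 days. Viability read by CellTiter-Glo luminescence, background from medium without cells subtracted, expressed relative to untreated cells.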

ER-α in MCF-7 cells = molecular target: T1, ER-α in MCF-7 cells (Homo sapiens, UniProt P03372); assay: Breast cancer cell ER-α in cell western assay (SP1); assay type: cell-based; parameters: endogenous in cells; host or cells: MCF-7; settings: 4 or 24 hr post compound addition; for Emax: MCF7, SP1 antibody, read-out: ER-α In Cell Western Assay (SP1) Max Response; for DC50: SP1 antibody, read-out: ER-α In Cell Western Assay (SP1) IC50
T1 sequence (P03372 1-595): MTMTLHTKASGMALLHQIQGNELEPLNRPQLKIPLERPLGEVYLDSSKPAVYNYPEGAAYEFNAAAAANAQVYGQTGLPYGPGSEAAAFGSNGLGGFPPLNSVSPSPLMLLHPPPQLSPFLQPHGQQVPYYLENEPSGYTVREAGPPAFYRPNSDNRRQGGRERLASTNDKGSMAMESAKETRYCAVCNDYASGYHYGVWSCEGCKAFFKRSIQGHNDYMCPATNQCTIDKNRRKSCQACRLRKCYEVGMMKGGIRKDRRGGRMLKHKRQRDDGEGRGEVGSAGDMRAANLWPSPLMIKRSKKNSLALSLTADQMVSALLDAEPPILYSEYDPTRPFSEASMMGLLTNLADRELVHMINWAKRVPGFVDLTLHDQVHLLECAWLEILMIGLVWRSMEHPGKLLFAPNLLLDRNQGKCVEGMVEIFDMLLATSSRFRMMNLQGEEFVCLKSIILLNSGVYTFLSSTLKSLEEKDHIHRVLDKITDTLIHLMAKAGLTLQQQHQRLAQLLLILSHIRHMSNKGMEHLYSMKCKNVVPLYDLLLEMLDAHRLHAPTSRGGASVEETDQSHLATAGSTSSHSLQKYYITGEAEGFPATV
In short: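 MCF-7, charcoal-stripped FBS/RPMI, 3200 cells/well, adhered overnight. Formalin fix, SP1 Ab o/n 4 °C, IRDye 800CW + DRAQ5; % ER = 800/700 ratio vs untreated.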

Structure (SMILES) | MCF7 Viability Assay Max Response (MCF-7 cells) | pIC50 (MCF-7 cells) | Emax (ER-α in MCF-7 cells) | DC50 (ER-α in MCF-7 cells)
CC/C(=C(/c1ccc(/C=C/C(=O)NS(=O)(=O)Cc2ccccc2)cc1)c1ccc2[nH]ncc2c1)c1ccc(F)cc1Cl [Compound 429, (E)-N-(Benzylsulfonyl)-3-(4-((E)-2-(2-chloro-4-fluorophenyl)-1-(1H-indazol-5-yl)but-1-en-1-yl)phenyl)acrylamide] | ++ (++ = a single % value ≧ 40%) | ≥ 7.00 | ≥ 40% | ≤ 100 nM
CC/C(=C(/c1ccc(/C=C/C(=O)Nc2nccs2)cc1)c1ccc2[nH]ncc2c1)c1ccccc1 [Compound 430, (E)-3-(4-((E)-1-(1H-Indazol-5-yl)-2-phenylbut-1-en-1-yl)phenyl)-N-(thiazol-2-yl)acrylamide] | ++ (++ = a single % value ≧ 40%) | ≥ 7.00 | ≥ 40% | ≤ 100 nM
CC/C(=C(/c1ccc(/C=C/C(=O)NC2CCCC2)cc1)c1ccc2[nH]ncc2c1)c1ccccc1 [Compound 431, (E)-3-(4-((E)-1-(1H-Indazol-5-yl)-2-phenylbut-1-en-1-yl)phenyl)-N-cyclopentylacrylamide] | ++ (++ = a single % value ≧ 40%) | ≥ 7.00 | ≥ 40% | ≤ 100 nM
CC/C(=C(/c1ccc(/C=C/C(=O)NS(=O)(=O)c2ccccn2)cc1)c1ccc2[nH]ncc2c1)c1ccc(F)cc1Cl [Compound 432, (E)-3-(4-((E)-2-(2-Chloro-4-fluorophenyl)-1-(1H-indazol-5-yl)but-1-en-1-yl)phenyl)-N-(pyridin-2-ylsulfonyl)acrylamide] | ++ (++ = a single % value ≧ 40%) | ≥ 7.00 | ≥ 40% | ≤ 100 nM
CC/C(=C(/c1ccc(/C=C/C(=O)NS(=O)(=O)c2cccnc2)cc1)c1ccc2[nH]ncc2c1)c1ccc(F)cc1Cl [Compound 433, (E)-3-(4-((E)-2-(2-Chloro-4-fluorophenyl)-1-(1H-indazol-5-yl)but-1-en-1-yl)phenyl)-N-(pyridin-3-ylsulfonyl)acrylamide] | ++ (++ = a single % value ≧ 40%) | ≥ 7.00 | ≥ 40% | ≤ 100 nM
CC/C(=C(/c1ccc(/C=C/C(=O)NS(=O)(=O)c2ccncc2)cc1)c1ccc2[nH]ncc2c1)c1ccc(F)cc1Cl [Compound 434, (E)-3-(4-((E)-2-(2-Chloro-4-fluorophenyl)-1-(1H-indazol-5-yl)but-1-en-1-yl)phenyl)-N-(pyridin-4-ylsulfonyl)acrylamide] | ++ (++ = a single % value ≧ 40%) | ≥ 7.00 | ≥ 40% | ≤ 100 nM
CC/C(=C(/c1ccc(/C=C/c2noc(=O)[nH]2)cc1)c1ccc2[nH]ncc2c1)c1ccccc1 [Compound 435, 3-((E)-4-((E)-1-(1H-Indazol-5-yl)-2-phenylbut-1-en-1-yl)styryl)-1,2,4-oxadiazol-5(4H)-one] | ++ (++ = a single % value ≧ 40%) | ≥ 7.00 | ≥ 40% | ≤ 100 nM
CC/C(=C(/c1ccc(/C=C/c2noc(=O)[nH]2)cc1)c1ccc2scnc2c1)c1ccc(F)cc1Cl [Compound 436, 3-((E)-4-((E)-1-(Benzo[d]thiazol-5-yl)-2-(2-chloro-4-fluorophenyl)but-1-en-1-yl)styryl)-1,2,4-oxadiazol-5(4H)-one] | ++ (++ = a single % value ≧ 40%) | ≥ 7.00 | ≥ 40% | ≤ 100 nM
CC/C(=C(/c1ccc(/C=C/c2noc(=O)[nH]2)cc1)c1ccc2[nH]ncc2c1)c1ccc(F)cc1Cl [Compound 437, 3-((E)-4-((E)-2-(2-Chloro-4-fluorophenyl)-1-(1H-indazol-5-yl)but-1-en-1-yl)styryl)-1,2,4-oxadiazol-5(4H)-one] | ++ (++ = a single % value ≧ 40%) | ≥ 7.00 | ≥ 40% | ≤ 100 nM
CC/C(=C(/c1ccc(/C=C/c2nsc(=O)[nH]2)cc1)c1ccc2[nH]ncc2c1)c1ccccc1 [Compound 438, 3-((E)-4-((E)-1-(1H-Indazol-5-yl)-2-phenylbut-1-en-1-yl)styryl)-1,2,4-thiadiazol-5(4H)-one] | ++ (++ = a single % value ≧ 40%) | ≥ 7.00 | ≥ 40% | ≤ 100 nM
CC/C(=C(/c1ccc(/C=C/c2nsc(=O)[nH]2)cc1)c1ccc2[nH]ncc2c1)c1ccc(F)cc1Cl [Compound 439, 3-((E)-4-((E)-2-(2-Chloro-4-fluorophenyl)-1-(1H-indazol-5-yl)but-1-en-1-yl)styryl)-1,2,4-thiadiazol-5(4H)-one] | ++ (++ = a single % value ≧ 40%) | ≥ 7.00 | ≥ 40% | ≤ 100 nM
CC/C(=C(/c1ccc(/C=C/c2noc(=S)[nH]2)cc1)c1ccc2[nH]ncc2c1)c1ccccc1 [Compound 440, 3-((E)-4-((E)-1-(1H-Indazol-5-yl)-2-phenylbut-1-en-1-yl)styryl)-1,2,4-oxadiazole-5(4H)-thione] | + (+ = a single % value < 40%) | ≥ 7.00 | ≥ 40% | ≤ 100 nM
CC/C(=C(/c1ccc(/C=C/c2noc(=S)[nH]2)cc1)c1ccc2[nH]ncc2c1)c1ccc(F)cc1Cl [Compound 441, 3-((E)-4-((E)-2-(2-Chloro-4-fluorophenyl)-1-(1H-indazol-5-yl)but-1-en-1-yl)styryl)-1,2,4-oxadiazole-5(4H)-thione] | + (+ = a single % value < 40%) | ≥ 7.00 | ≥ 40% | ≤ 100 nM
CC/C(=C(/c1ccc(/C=C/c2nn[nH]n2)cc1)c1ccc2[nH]ncc2c1)c1ccccc1 [Compound 442, 5-((E)-1-(4-((E)-2-(2H-Tetrazol-5-yl)vinyl)phenyl)-2-phenylbut-1-en-1-yl)-1H-indazole] | ++ (++ = a single % value ≧ 40%) | ≥ 7.00 | ≥ 40% | ≤ 100 nM
CC/C(=C(/c1ccc(/C=C/c2nn[nH]n2)cc1)c1ccc2[nH]ncc2c1)c1ccccc1Cl [Compound 443, 5-((E)-1-(4-((E)-2-(2H-Tetrazol-5-yl)vinyl)phenyl)-2-(2-chlorophenyl)but-1-en-1-yl)-1H-indazole] | ++ (++ = a single % value ≧ 40%) | ≥ 7.00 | ≥ 40% | ≤ 100 nM
CC/C(=C(/c1ccc(/C=C/c2nn[nH]n2)cc1)c1ccc2scnc2c1)c1ccccc1 [Compound 444, 5-((E)-1-(4-((E)-2-(2H-Tetrazol-5-yl)vinyl)phenyl)-2-phenylbut-1-en-1-yl)benzo[d]thiazole] | ++ (++ = a single % value ≧ 40%) | < 7.00 | ≥ 40% | ≤ 100 nM
CC/C(=C(/c1ccc(/C=C/c2nn[nH]n2)cc1)c1ccc2scnc2c1)c1ccc(F)cc1Cl [Compound 445, 5-((E)-1-(4-((E)-2-(2H-Tetrazol-5-yl)vinyl)phenyl)-2-(2-chloro-4-fluorophenyl)but-1-en-1-yl)benzo[d]thiazole] | ++ (++ = a single % value ≧ 40%) | ≥ 7.00 | ≥ 40% | ≤ 100 nM
CC/C(=C(/c1ccc(/C=C/c2nn[nH]n2)cc1)c1ccc2scnc2c1)c1ccncc1Cl [Compound 446, 5-((E)-1-(4-((E)-2-(2H-Tetrazol-5-yl)vinyl)phenyl)-2-(3-chloropyridin-4-yl)but-1-en-1-yl)benzo[d]thiazole] | ++ (++ = a single % value ≧ 40%) | ≥ 7.00 | ≥ 40% | ≤ 100 nM
CC/C(=C(/c1ccc(/C=C/c2nn[nH]n2)cc1)c1ccc2scnc2c1)c1cscc1C [Compound 447, 5-((E)-1-(4-((E)-2-(2H-Tetrazol-5-yl)vinyl)phenyl)-2-(4-methylthiophen-3-yl)but-1-en-1-yl)benzo[d]thiazole] | ++ (++ = a single % value ≧ 40%) | ≥ 7.00 | ≥ 40% | ≤ 100 nM
Cc1cscc1/C(=C(\c1ccc(/C=C/c2nn[nH]n2)cc1)c1ccc2scnc2c1)C1CCC1 [Compound 448, 5-((E)-1-(4-((E)-2-(2H-Tetrazol-5-yl)vinyl)phenyl)-2-cyclobutyl-2-(4-methylthiophen-3-yl)vinyl)benzo[d]thiazole] | ++ (++ = a single % value ≧ 40%) | ≥ 7.00 | ≥ 40% | ≤ 100 nM
CC/C(=C(/c1ccc2cc(C(=O)O)ccc2c1)c1ccc2[nH]ncc2c1)c1ccccc1 [Compound 449, (E)-6-(1-(1H-Indazol-5-yl)-2-phenylbut-1-en-1-yl)-2-naphthoic acid] | ++ (++ = a single % value ≧ 40%) | ≥ 7.00 | ≥ 40% | ≤ 100 nM
